In PubChem BioAssay AID248 (DTP/NCI, 2004):
“And” between values parts separate entries of the source, which are not always exact repeats. Identical values can stand only once. Toxic doses and inconclusive results are not listed.

Tested on: L1210 leukemia ip in BDF1 mice, survival T/C
Experiment: NCI In Vivo Anticancer Drug Screen. Data for tumor model L1210 Leukemia (intraperitoneal) in B6D2F1 (BDF1) mice
Settings: endpoint: mean survival time, higher = longer survival
Outline: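 Transplanted-tumor mice were given test agent; controls received vehicle only. Survival readings from the two groups were divided (treated over control).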

[1] = dose: 100.0 mg/kg/injection, schedule: Q01DX001 (ip), vehicle: saline
[2] = dose: 200.0 mg/kg/injection, schedule: Q01DX001 (ip), vehicle: saline
[3] = dose: 400.0 mg/kg/injection, schedule: Q01DX001 (ip), vehicle: saline
[4] = dose: 100.0 mg/kg/injection, schedule: Q04DX003 (ip), vehicle: Klucel (hydroxypropylcellulose) (HPC)
[5] = dose: 400.0 mg/kg/injection, schedule: Q04DX003 (ip), vehicle: Klucel (hydroxypropylcellulose) (HPC)

SMILES: CC(=O)OC1C(=O)C(C)(C)CN(C(C)(C)C)CC1(C)C (stereo unspecified)
- T/C (dose: 100.0 mg/kg/injection, schedule: Q01DX001 (ip), vehicle: saline sonified): 102 % of control
- T/C (dose: 200.0 mg/kg/injection, schedule: Q01DX001 (ip), vehicle: saline sonified): 91 % of control
- T/C (dose: 400.0 mg/kg/injection, schedule: Q01DX001 (ip), vehicle: saline sonified): 90 % of control

SMILES: CC(=O)c1cc([N+](=O)[O-])ccc1O
- T/C [1]: 90 % of control
- T/C [2]: 97 % of control
- T/C [3]: 90 % of control

SMILES: CC(=O)OC1CC2CC1C1C3C=CC(C3)C21 (stereo unspecified)
- T/C [1]: 98 % of control
- T/C [2]: 95 % of control
- T/C [3]: 106 % of control

SMILES: Cc1cc(Cl)c(Cl)cc1NC(=O)c1ccccc1F
- T/C (dose: 100.0 mg/kg/injection, schedule: Q01DX001 (ip), vehicle: other): 94 % of control
- T/C (dose: 100.0 mg/kg/injection, schedule: Q01DX009 (ip), vehicle: other): 107 % of control and 92 % of control
- T/C (dose: 100.0 mg/kg/injection, schedule: Q04DX002 (ip), vehicle: other): 98 % of control and 102 % of control
- T/C (dose: 100.0 mg/kg/injection, schedule: Q04DX003 (ip), vehicle: other): 98 % of control
- T/C (dose: 200.0 mg/kg/injection, schedule: Q01DX001 (ip), vehicle: other): 92 % of control
- T/C (dose: 200.0 mg/kg/injection, schedule: Q01DX009 (ip), vehicle: other): 90 % of control and 92 % of control
- T/C (dose: 200.0 mg/kg/injection, schedule: Q04DX002 (ip), vehicle: other): 105 % of control and 91 % of control
- T/C (dose: 200.0 mg/kg/injection, schedule: Q04DX003 (ip), vehicle: other): 100 % of control
- T/C (dose: 400.0 mg/kg/injection, schedule: Q01DX001 (ip), vehicle: other): 91 % of control
- T/C (dose: 400.0 mg/kg/injection, schedule: Q01DX009 (ip), vehicle: other): 90 % of control and 92 % of control
- T/C (dose: 400.0 mg/kg/injection, schedule: Q04DX002 (ip), vehicle: other): 100 % of control and 102 % of control
- T/C (dose: 400.0 mg/kg/injection, schedule: Q04DX003 (ip), vehicle: other): 96 % of control

SMILES: CCCCCCCCCCc1cc2c([nH]1)C(=O)c1ccccc1C2=O
- T/C (dose: 37.5 mg/kg/injection, schedule: Q01DX001 (ip), vehicle: Klucel (hydroxypropylcellulose) (HPC)): 86 % of control
- T/C (dose: 75.0 mg/kg/injection, schedule: Q01DX001 (ip), vehicle: Klucel (hydroxypropylcellulose) (HPC)): 89 % of control

SMILES: C=C(C(=O)OC1CC2CCC(C1)N2C)c1ccccc1 (stereo unspecified)
- T/C (dose: 1.25 mg/kg/injection, schedule: Q01DX Z (ip), vehicle: saline): 90 % of control
- T/C (dose: 1.25 mg/kg/injection, schedule: Q04DX003 (ip), vehicle: Klucel (hydroxypropylcellulose) (HPC)): 113 % of control
- T/C (dose: 2.5 mg/kg/injection, schedule: Q01DX Z (ip), vehicle: saline): 105 % of control
- T/C (dose: 2.5 mg/kg/injection, schedule: Q04DX003 (ip), vehicle: Klucel (hydroxypropylcellulose) (HPC)): 101 % of control
- T/C (dose: 5.0 mg/kg/injection, schedule: Q01DX Z (ip), vehicle: saline): 97 % of control
- T/C (dose: 5.0 mg/kg/injection, schedule: Q04DX003 (ip), vehicle: Klucel (hydroxypropylcellulose) (HPC)): 107 % of control
- T/C (dose: 10.0 mg/kg/injection, schedule: Q01DX001 (ip), vehicle: carboxymethylcellulose (CMC)): 111 % of control
- T/C (dose: 10.0 mg/kg/injection, schedule: Q04DX003 (ip), vehicle: Klucel (hydroxypropylcellulose) (HPC)): 106 % of control
- T/C (dose: 20.0 mg/kg/injection, schedule: Q01DX001 (ip), vehicle: carboxymethylcellulose (CMC)): 93 % of control

SMILES: Cc1[nH]c(=S)[nH]c(=O)c1CC(O)c1ccccc1 (stereo unspecified)
- T/C [4]: 92 % of control
- T/C (dose: 100.0 mg/kg/injection, schedule: Q04DX003 (ip), vehicle: saline): 92 % of control
- T/C (dose: 200.0 mg/kg/injection, schedule: Q04DX003 (ip), vehicle: saline): 94 % of control
- T/C [5]: 87 % of control
- T/C (dose: 400.0 mg/kg/injection, schedule: Q04DX003 (ip), vehicle: saline): 89 % of control

SMILES: CCOC(=O)N(c1ccccc1)C1OCC(OC(C)=O)C(OC(C)=O)C1OC(C)=O (stereo unspecified)
- T/C (dose: 100.0 mg/kg/injection, schedule: Q01DX009 (ip), vehicle: saline): 97 % of control
- T/C (dose: 100.0 mg/kg/injection, schedule: Q04DX003 (ip), vehicle: water): 97 % of control
- T/C (dose: 200.0 mg/kg/injection, schedule: Q01DX009 (ip), vehicle: saline): 93 % of control
- T/C (dose: 200.0 mg/kg/injection, schedule: Q04DX003 (ip), vehicle: water): 97 % of control
- T/C (dose: 400.0 mg/kg/injection, schedule: Q01DX009 (ip), vehicle: saline): 94 % of control
- T/C (dose: 400.0 mg/kg/injection, schedule: Q04DX003 (ip), vehicle: water): 94 % of control

SMILES: N#CSCCC(c1ccccc1)(c1ccccc1)c1ccccc1
- T/C (dose: 50.0 mg/kg/injection, schedule: Q01DX009 (ip), vehicle: saline with Tween-80): 90 % of control
- T/C (dose: 100.0 mg/kg/injection, schedule: Q01DX009 (ip), vehicle: saline with Tween-80): 90 % of control
- T/C (dose: 200.0 mg/kg/injection, schedule: Q01DX009 (ip), vehicle: saline with Tween-80): 90 % of control

SMILES: Nc1nc([Se])c2ncn(C3OC(CO)C(O)C3O)c2n1 (stereo unspecified)
- T/C (dose: 10.0 mg/kg/injection, schedule: Q01DX009 (ip), vehicle: saline): 179 % of control
- T/C (dose: 12.5 mg/kg/injection, schedule: Q01DX009 (ip), vehicle: saline): 208 % of control and 213 % of control
- T/C (dose: 20.0 mg/kg/injection, schedule: Q01DX009 (ip), vehicle: saline): 182 % of control
- T/C (dose: 25.0 mg/kg/injection, schedule: Q01DX009 (ip), vehicle: saline): 201 % of control and 229 % of control
- T/C (dose: 50.0 mg/kg/injection, schedule: Q01DX009 (ip), vehicle: saline): 91 % of control

SMILES: Cc1ccc(S(=O)(=O)CN2CCC(=O)c3ccccc32)cc1
- T/C (dose: 75.0 mg/kg/injection, schedule: Q01DX001 (ip), vehicle: saline): 104 % of control
- T/C (dose: 150.0 mg/kg/injection, schedule: Q01DX001 (ip), vehicle: saline): 101 % of control
- T/C (dose: 300.0 mg/kg/injection, schedule: Q01DX001 (ip), vehicle: saline): 93 % of control

SMILES: O=C(CC(O)(C(F)(F)F)C(F)(F)F)c1cccnc1
- T/C (dose: 100.0 mg/kg/injection, schedule: Q01DX009 (ip), vehicle: Klucel (hydroxypropylcellulose) (HPC)): 98 % of control
- T/C (dose: 100.0 mg/kg/injection, schedule: Q04DX003 (ip), vehicle: saline with Tween-80): 101 % of control
- T/C (dose: 200.0 mg/kg/injection, schedule: Q01DX009 (ip), vehicle: Klucel (hydroxypropylcellulose) (HPC)): 104 % of control
- T/C (dose: 200.0 mg/kg/injection, schedule: Q04DX003 (ip), vehicle: saline with Tween-80): 103 % of control
- T/C (dose: 400.0 mg/kg/injection, schedule: Q01DX009 (ip), vehicle: Klucel (hydroxypropylcellulose) (HPC)): 101 % of control
- T/C (dose: 400.0 mg/kg/injection, schedule: Q04DX003 (ip), vehicle: saline with Tween-80): 103 % of control

SMILES: [C](#[C][Sn]([c]1ccccc1)([c]1ccccc1)[c]1ccccc1)[Sn]([c]1ccccc1)([c]1ccccc1)[c]1ccccc1
- T/C [4]: 94 % of control
- T/C (dose: 200.0 mg/kg/injection, schedule: Q04DX002 (ip), vehicle: saline): 92 % of control
- T/C (dose: 200.0 mg/kg/injection, schedule: Q04DX003 (ip), vehicle: Klucel (hydroxypropylcellulose) (HPC)): 95 % of control
- T/C (dose: 400.0 mg/kg/injection, schedule: Q04DX002 (ip), vehicle: saline): 92 % of control
- T/C [5]: 111 % of control

SMILES: N=C(N)Sc1cnc2ccccc2n1
- T/C [1]: 95 % of control
- T/C [2]: 97 % of control
- T/C [3]: 105 % of control

SMILES: COC(=O)c1cn2ccc(C#N)cc2c1C(=O)OC
- T/C (dose: 100.0 mg/kg/injection, schedule: Q04DX002 (ip), vehicle: saline with Tween-80): 89 % of control
- T/C (dose: 200.0 mg/kg/injection, schedule: Q04DX002 (ip), vehicle: saline with Tween-80): 95 % of control
- T/C (dose: 400.0 mg/kg/injection, schedule: Q04DX002 (ip), vehicle: saline with Tween-80): 95 % of control

SMILES: Cc1nc(Br)c(Br)n1C
- T/C (dose: 25.0 mg/kg/injection, schedule: Q04DX002 (ip), vehicle: Klucel (hydroxypropylcellulose) (HPC)): 110 % of control
- T/C (dose: 50.0 mg/kg/injection, schedule: Q01DX009 (ip), vehicle: carboxymethylcellulose (CMC)): 103 % of control and 104 % of control
- T/C (dose: 50.0 mg/kg/injection, schedule: Q04DX002 (ip), vehicle: Klucel (hydroxypropylcellulose) (HPC)): 92 % of control
- T/C (dose: 100.0 mg/kg/injection, schedule: Q01DX009 (ip), vehicle: carboxymethylcellulose (CMC)): 96 % of control and 118 % of control
- T/C (dose: 100.0 mg/kg/injection, schedule: Q04DX002 (ip), vehicle: Klucel (hydroxypropylcellulose) (HPC)): 100 % of control and 91 % of control
- T/C (dose: 100.0 mg/kg/injection, schedule: Q04DX002 (ip), vehicle: carboxymethylcellulose (CMC)): 105 % of control
- T/C (dose: 100.0 mg/kg/injection, schedule: Q04DX003 (ip), vehicle: carboxymethylcellulose (CMC)): 91 % of control
- T/C (dose: 200.0 mg/kg/injection, schedule: Q01DX009 (ip), vehicle: carboxymethylcellulose (CMC)): 96 % of control and 110 % of control
- T/C (dose: 200.0 mg/kg/injection, schedule: Q04DX002 (ip), vehicle: carboxymethylcellulose (CMC)): 97 % of control and 105 % of control
- T/C (dose: 200.0 mg/kg/injection, schedule: Q04DX003 (ip), vehicle: carboxymethylcellulose (CMC)): 104 % of control
